Measured values: ChEMBL document CHEMBL4351013, “Carboxamides vs. methanimines: Crystal structures, binding interactions, photophysical studies, and biological evaluation of (indazole-5-yl)methanimines as monoamine oxidase B and acetylcholinesterase inhibitors” (Eur J Med Chem, 2019)

Experiments:
[1] = target: T1, Amine oxidase [flavin-containing] B (Homo sapiens, UniProt P27338); test: biochemical; format: cell-based, BTI-TN-5B1-4
T1 sequence (P27338 whole entry): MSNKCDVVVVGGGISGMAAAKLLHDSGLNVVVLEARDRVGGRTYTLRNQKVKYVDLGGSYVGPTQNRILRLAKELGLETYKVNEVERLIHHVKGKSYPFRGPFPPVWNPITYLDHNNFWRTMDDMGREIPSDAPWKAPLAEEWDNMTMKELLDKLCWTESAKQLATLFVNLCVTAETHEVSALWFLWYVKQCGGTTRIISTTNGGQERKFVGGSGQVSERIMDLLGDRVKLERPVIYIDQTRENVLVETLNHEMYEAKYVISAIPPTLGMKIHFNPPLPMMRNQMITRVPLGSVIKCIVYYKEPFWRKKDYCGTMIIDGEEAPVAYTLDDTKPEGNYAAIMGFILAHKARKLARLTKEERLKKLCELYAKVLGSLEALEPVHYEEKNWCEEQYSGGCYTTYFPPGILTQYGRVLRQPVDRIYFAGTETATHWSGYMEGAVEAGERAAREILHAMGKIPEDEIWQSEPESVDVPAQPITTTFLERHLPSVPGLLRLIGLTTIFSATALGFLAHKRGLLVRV
Description: Inhibition of human recombinant MAO-B expressed in baculovirus infected BTI-TN-5B1-4 insect cells assessed as decrease in H2O2 production using p-tyramine as substrate incubated for 20 mins by horse-radish peroxidase/amplex red-based fluorescence method

Homo sapiens = organism: Homo sapiens; test: Selectivity index, ratio of IC50 for human recombinant MAO-A expressed in baculovirus infected BTI-TN-5B1-4 cells to IC50 for human recombinant MAO-B expressed in baculovirus infected BTI-TN-5B1-4 cells
[2] = target: Cholinesterase (Homo sapiens) (UniProt P06276); test: Inhibition of BuChE in human serum using S-butyrylthiocholine iodide as substrate at 100 uM preincubated with enzyme for 10 mins followed by substrate addition measured for 15 mins by Ellman's method relative to control; format: cell-free
[3] = target: T1, Amine oxidase [flavin-containing] B; test: Competitive inhibition of human recombinant MAO-B expressed in baculovirus infected BTI-TN-5B1-4 insect cells using p-tyramine as substrate by Dixon- plot analysis
[4] = target: T2, Amine oxidase [flavin-containing] A (Homo sapiens, UniProt P21397); test: biochemical
T2 sequence (P21397 whole entry): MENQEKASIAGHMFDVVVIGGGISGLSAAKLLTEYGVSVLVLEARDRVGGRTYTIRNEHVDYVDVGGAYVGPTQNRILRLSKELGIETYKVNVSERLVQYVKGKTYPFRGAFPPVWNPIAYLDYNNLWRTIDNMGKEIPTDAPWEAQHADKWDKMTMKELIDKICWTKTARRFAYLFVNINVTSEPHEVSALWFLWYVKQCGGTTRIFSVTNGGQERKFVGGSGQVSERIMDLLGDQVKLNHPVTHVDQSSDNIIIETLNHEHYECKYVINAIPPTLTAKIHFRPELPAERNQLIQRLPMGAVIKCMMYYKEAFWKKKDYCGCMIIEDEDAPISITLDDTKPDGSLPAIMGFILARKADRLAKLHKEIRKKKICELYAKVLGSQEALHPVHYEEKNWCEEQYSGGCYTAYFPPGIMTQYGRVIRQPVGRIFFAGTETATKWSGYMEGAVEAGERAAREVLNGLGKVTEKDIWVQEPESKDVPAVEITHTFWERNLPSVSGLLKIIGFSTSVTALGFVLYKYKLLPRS
Description: Inhibition of human recombinant MAO-A expressed in baculovirus infected BTI-TN-5B1-4 insect cells assessed as decrease in H2O2 production using p-tyramine as substrate incubated for 20 mins by horse-radish peroxidase/amplex red-based fluorescence method

[5] = target: T1, Amine oxidase [flavin-containing] B; test: Competitive inhibition of human recombinant MAO-B expressed in baculovirus infected BTI-TN-5B1-4 insect cells using p-tyramine as substrate by Lineweaver-Burk plot analysis
HepG2 = test: Cytotoxicity against human HepG2 cells assessed as mitochondrial dysfunction at 25 to 50 uM; format: cell-based; conditions: hepg2, 50 µM
[6] = target: T1, Amine oxidase [flavin-containing] B; test: Potency index, ratio of selegiline IC50 to compound IC50 for human recombinant MAO-B expressed in baculovirus infected BTI-TN-5B1-4 insect cells using p-tyramine as substrate
[7] = Cytotoxicity against human HepG2 cells assessed as cell viability at 50 uM measured after 72 hrs by MTT assay relative to control; format: cell-based; conditions: read-out: Activity
Acetylcholinesterase = Acetylcholinesterase (Homo sapiens, UniProt P22303); test: Inhibition of AChE in human erythrocytes using acetylthiocholine iodide as substrate preincubated with enzyme for 10 mins followed by substrate addition measured for 15 mins by Ellman's method; format: cell-based
[8] = Stability of the compound in ACN at 50 uM measured under daylight exposure for 76 days by UV-visible spectra analysis; format: physicochemical; conditions: 1824 h
[9] = Stability of the compound in DMSO at 50 uM measured under daylight exposure for 76 days by UV-visible spectra analysis; format: physicochemical; conditions: 1824 h
[10] = Stability of the compound in dry MeOH at 1 mM measured under daylight for 62 days by LC/ESI-MS analysis; format: physicochemical; conditions: 1488 h, 1000 µM
[11] = Stability of the compound in dry MeOH assessed as dimers at 1 mM measured under daylight exposure for >96 hrs by LC/ESI-MS analysis; format: physicochemical; conditions: 1000 µM
[12] = Stability of the compound in dry MeOH assessed as compound crystallization at 10 mM measured under daylight for 43 hrs by LC/ESI-MS analysis; format: physicochemical; conditions: 10000 µM
[13] = Stability of the compound in MeOH at 50 uM measured under daylight exposure for 3 days by UV-visible spectra analysis; format: physicochemical; conditions: 72 h
[14] = Stability of the compound in MeOH assessed as compound purity level at 50 uM measured under daylight exposure for 76 days by LC/ESI-MS analysis; format: physicochemical; conditions: methanol; read-out: Stability
[15] = Stability of the compound in dry MeOH at 1 to 10 mM measured under daylight exposure for 24 to 96 hrs by LC/ESI-MS analysis; format: physicochemical; conditions: 10000 µM

Sequence of Cholinesterase (Homo sapiens) (P06276 whole entry): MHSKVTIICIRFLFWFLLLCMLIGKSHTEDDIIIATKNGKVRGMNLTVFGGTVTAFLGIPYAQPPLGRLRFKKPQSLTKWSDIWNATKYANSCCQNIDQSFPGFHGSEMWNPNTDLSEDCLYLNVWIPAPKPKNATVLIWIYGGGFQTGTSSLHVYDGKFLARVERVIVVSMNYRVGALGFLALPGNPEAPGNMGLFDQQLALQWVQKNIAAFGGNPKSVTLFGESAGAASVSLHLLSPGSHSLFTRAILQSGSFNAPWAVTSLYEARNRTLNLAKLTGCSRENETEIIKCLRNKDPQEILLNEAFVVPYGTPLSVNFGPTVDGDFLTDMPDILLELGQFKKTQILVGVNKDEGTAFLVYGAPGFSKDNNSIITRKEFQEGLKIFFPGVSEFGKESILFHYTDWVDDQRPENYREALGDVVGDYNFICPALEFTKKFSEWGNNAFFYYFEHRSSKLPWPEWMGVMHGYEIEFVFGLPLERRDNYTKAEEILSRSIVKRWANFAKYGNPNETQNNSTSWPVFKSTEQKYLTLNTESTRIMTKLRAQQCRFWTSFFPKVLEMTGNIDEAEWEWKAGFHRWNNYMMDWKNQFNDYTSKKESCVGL
Sequence of Acetylcholinesterase (P22303 whole entry): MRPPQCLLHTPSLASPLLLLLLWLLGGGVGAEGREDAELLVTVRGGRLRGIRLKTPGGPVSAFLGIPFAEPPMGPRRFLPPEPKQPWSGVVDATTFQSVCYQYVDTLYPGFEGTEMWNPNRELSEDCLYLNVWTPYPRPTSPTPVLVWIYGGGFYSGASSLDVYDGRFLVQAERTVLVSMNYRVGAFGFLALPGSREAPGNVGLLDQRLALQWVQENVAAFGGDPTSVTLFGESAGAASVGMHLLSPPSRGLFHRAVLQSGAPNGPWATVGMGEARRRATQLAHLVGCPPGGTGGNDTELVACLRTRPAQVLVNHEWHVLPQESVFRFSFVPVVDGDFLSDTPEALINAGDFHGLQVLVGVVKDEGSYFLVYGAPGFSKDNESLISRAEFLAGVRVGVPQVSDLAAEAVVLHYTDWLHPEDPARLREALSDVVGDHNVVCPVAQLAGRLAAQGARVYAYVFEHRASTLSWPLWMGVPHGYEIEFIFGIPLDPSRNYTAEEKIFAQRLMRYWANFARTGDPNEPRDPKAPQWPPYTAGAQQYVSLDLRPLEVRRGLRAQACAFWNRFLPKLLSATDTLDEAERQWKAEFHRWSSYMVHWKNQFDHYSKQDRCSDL

Compound `O=C(Nc1ccc(Cl)c(F)c1)c1ccc2[nH]ncc2c1` has a Ki [1] of 0.29 nM, a Ratio IC50 (Homo sapiens) of 15000 and an inhibition [2] of 2.23%.

In the case of `Fc1cc(/N=C/c2ccc3[nH]ncc3c2)ccc1Cl`, the Ki [1] is reported as 0.84 nM, the Ratio IC50 (Homo sapiens) is reported as 5240 and the inhibition [2] is reported as 6.97%.

In the case of `Cn1ncc2cc(/C=N/c3ccc(Cl)c(Cl)c3)ccc21`, the Ki [1] is reported as 0.46 nM, the Ki [3] is reported as 0.63 nM and the IC50 [4] is reported as over 10 µM. For the same compound, the “inhibition (INH)” value [5] was “Active”, the Ratio IC50 (Homo sapiens) was 9710 and the inhibition [2] was 8.57%.

With `O=C(Nc1ccc(Cl)c(Cl)c1)c1ccc2[nH]ncc2c1` the Activity (HepG2) was “Non-Toxic”, the “Ratio IC50” value [6] was 9 and the viability at 72 h, 50 µM [7] was 66.3%. The Ratio IC50 (Homo sapiens) was 17100 and the inhibition [2] was 11.3%.

In the case of `COCCn1ncc2cc(C(=O)Nc3ccc(Cl)c(Cl)c3)ccc21`, the Ki [4] is reported as 0.48 nM, the Ratio IC50 (Homo sapiens) is reported as over 2660 and the inhibition [2] is reported as 9.58%.

`O=C(Nc1ccc(F)c(Cl)c1)c1ccc2[nH]ncc2c1` gave an inhibition [2] of 7.21%.

`Cn1ncc2cc(C(=O)Nc3ccc(Cl)c(Cl)c3)ccc21` gave an IC50 (Acetylcholinesterase) of 78.3 µM and an inhibition [2] of 11.1%.

With `COCCn1ncc2cc(/C=N/c3ccc(Cl)c(Cl)c3)ccc21` the IC50 [1] was 1.29 nM, the Ki [1] was 0.57 nM and the IC50 [4] was over 10 µM. For the same compound, the Ratio IC50 (Homo sapiens) was 3160 and the inhibition [2] was 2.27%.

`O=C(Nc1cnc(Cl)c(Cl)c1)c1ccc2[nH]ncc2c1` gave a Ki [1] of 2.39 nM, an IC50 [4] of over 10 µM and a Ratio IC50 (Homo sapiens) of over 1840. It also gave an inhibition [2] of 9.23%.

`Fc1ccc(/N=C/c2ccc3[nH]ncc3c2)cc1Cl` gave a Ki [1] of 0.93 nM, an IC50 [4] of over 10 µM and a Ratio IC50 (Homo sapiens) of 4760. The inhibition [2] was 4.56%.

In the case of `Clc1ccc(/N=C/c2ccc3[nH]ncc3c2)cc1Cl`, the Stability [8] is reported as “Stable”, the Stability [9] is reported as “Stable” and the Activity (HepG2) is reported as “Non-Toxic”. The IC50 [4] was over 10 µM, the viability at 72 h, 50 µM [7] was 80.6% and the inhibition [2] was 9.01%.

With `Clc1cc(/N=C/c2ccc3[nH]ncc3c2)cnc1Cl` the Stability [8] was “Stable”, the IC50 [1] was 1.28 nM and the Ki [1] was 0.57 nM. The Stability [9] was “Stable”, the Stability [10] was “Unstable” and the Stability [11] was “Unstable”. The Stability [12] was “Unstable”, the Stability [13] was “Stable” and the IC50 [4] was over 10 µM. For the same compound, the remaining at 1824 h, 50 µM [14] was 68.1%, the Stability [15] was “Stable” and the “Ratio IC50” value [6] was 4.3. It also gave a Ratio IC50 (Homo sapiens) of over 7810 and an inhibition [2] of 9.64%.
